Test results from US20220002268A1, “NOVEL HETEROARYL-TRIAZOLE AND HETEROARYL-TETRAZOLE COMPOUNDS AS PESTICIDES” (Bayer Aktiengesellschaft, priority 2019, published 2022).

Experiments:
Diabrotica balteata = Diabrotica balteata spray test; assay type: in vivo; details: 168 h, 160 gg/well, after 7 days, read-out: efficacy (seedlings grown)
Procedure: Diabrotica balteata—Spray Test Solvent: 78.0 parts by weight of acetone • • 1.5 parts by weight of dimethylformamide Emulsifier: alkylarylpolyglycol ether
(§1) To produce a suitable preparation of active compound, 1 part by weight of active compound is mixed with the stated amount of solvent, and the concentrate is diluted with water, containing an emulsifier concentration of 1000 ppm, to the desired concentration. Further test concentrations are prepared by dilution with emulsifier containing water.
Soaked wheat seeds (Triticum aestivum) are placed in a multiple well plate filled with agar and some water and are incubated for 1 day to germinate (5 seeds per well). The germinated wheat seeds are sprayed with a test solution containing the desired concentration of the active ingredient. Afterwards each unit is infected with 10-20 larvae of the banded cucumber beetle (Diabrotica balteata).
After 7 days efficacy in % is determined. 100% means all the seedlings have grown up like in the untreated, uninfected control; 0% means none of the seedlings have grown.

Myzus persicae = Myzus persicae oral test; assay type: in vivo; details: 120 h, after 5 days
Procedure: Myzus persicae—Oral Test Solvent: 100 parts by weight acetone
To produce a suitable preparation of active compound, 1 part by weight of active compound is mixed with the stated amount of solvent, and the concentrate is diluted with water to the desired concentration.
50 μl compound solution is filled in microtiter plates and 150 μl IPL41 insect medium (33%+15% sugar) is added to obtain a total volume of 200 μl per well. Afterwards the plates are sealed with parafilm through which a mixed population of the green peach aphid (Myzus persicae) can suck on the compound preparation.
After 5 days mortality in % is determined. 100% means all aphids have been killed and 0% means none of the aphids have been killed.

Phaedon cochleariae = Phaedon cochleariae spray test; assay type: in vivo; details: 168 h, after 7 days
Procedure: Phaedon cochleariae—Spray Test Solvent: 78.0 parts by weight of acetone • • 1.5 parts by weight of dimethylformamide Emulsifier: alkylarylpolyglycol ether
as §1, with “solvents” for “solvent,”, “and” for “and the concentrate”
Chinese cabbage (Brassica pekinensis) leaf disks are sprayed with a preparation of the active ingredient of the desired concentration. Once dry, the leaf disks are infested with mustard beetle larvae (Phaedon cochleariae).
After 7 days mortality in % is determined. 100% means all beetle larvae have been killed and 0% means none of the beetle larvae have been killed.

Ctenocephalides felis [1] = test: Ctenocephalides felis oral test; assay type: in vivo; details: 48 h, 100 ppm in cattle blood, after 2 days
Procedure: Ctenocephalides felis—Oral Test Solvent: dimethyl sulfoxide
To produce a suitable preparation of active compound, 10 mg of active compound are dissolved in 0.5 ml solvent, and the concentrate is diluted with cattle blood to the desired concentration.
Approximately 20 adult unfed cat fleas (Ctenocephalides felis) are placed in flea chambers. The blood chamber, sealed with parafilm on the bottom, are filled with cattle blood supplied with compound solution and placed on the gauze covered top of the flea chamber, so that the fleas are able to suck the blood. The blood chamber is heated to 37° C. whereas the flea chamber is kept at room temperature.
After 2 days mortality in % is determined. 100% means all the fleas have been killed; 0% means none of the fleas have been killed.

Boophilus microplus = Boophilus microplus injection test; assay type: in vivo; details: Rhipicephalus microplus, 168 h; 20 gg/animal, injection into abdomen, after 7 days; read-out: efficacy (infertile eggs)
Procedure: Boophilus microplus—Injection Test Solvent: dimethyl sulfoxide To produce a suitable preparation of active compound, 10 mg of active compound are dissolved in 0.5 ml solvent, and the concentrate is diluted with solvent to the desired concentration. Five adult engorged female ticks (Boophilus microplus) are injected with 1 μl compound solution into the abdomen. The ticks are transferred into replica plates and incubated in a climate chamber. After 7 days egg deposition of fertile eggs is monitored. Eggs where fertility is not visible are stored in a climate chamber till hatching after about 42 days. An efficacy of 100% means all eggs are infertile; 0% means all eggs are fertile.

Spodoptera frugiperda = Spodoptera frugiperda spray test; assay type: in vivo; details: 168 h, after 7 days
Procedure: Suodontera frugiuerda—Spray Test Solvent: 78.0 parts by weight acetone • 1.5 parts by weight dimethylformamide Emulsifier: alkylarylpolyglycol ether
as §1, with “solvents” for “solvent,”, “and” for “and the concentrate”
Maize (Zea mays) leaf sections are sprayed with a preparation of the active ingredient of the desired concentration. Once dry, the leaf sections are infested with fall armyworm larvae (Spodoptera frugiperda).
After 7 days mortality in % is determined. 100% means all caterpillars have been killed and 0% means none of the caterpillars have been killed.

[2] = test system: Culex quinquefasciatus strain P00; test: whole plant or invertebrate; assay type: in vivo; details: read-out: efficacy (mortality)
Procedure: Culex quinquefasciatus Test (CULXFA Surface Treatment & Contact Assay) Solvent: Aceton+2000 ppm rapeseed oil methyl ester (RME)
(§2) In order to produce a sufficient, active ingredient containing solution it is necessary to solve the test compound in the solvent-mix (acetone at 2 mg/ml/RME 2000 ppm). This solution is pipetted onto a glazed tile and after evaporation of the acetone, adult mosquitoes of the species Culex quinquefasciatus strain P00 are placed onto the dried surface. The exposure time is 30 minutes.
(§3) Mortality in percent (%) is determined 24 hours after contact to the treated surface. 100% mortality means that all tested insects are dead, whereas 0% means that no insect died.

[3] = test system: Aedes aegypti strain MONHEIM; test: Aedes aegypti test (AEDSAE surface treatment & contact assay); assay type: in vivo; details: surface concentration 20 mg/m^2, 30 minutes exposure, 24 hours after contact, read-out: efficacy (mortality)
Procedure: Aedes aegyti Test (AEDSAE Surface Treatment & Contact Assay) Solvent: Aceton+2000 ppm rapeseed oil methyl ester (RME)
as §2, with “Aedes aegypti” for “Culex quinquefasciatus”, “MONHEIM” for “P00”
as §3

Rhipicephalus sanguineus = Rhipicephalus sanguineus in-vitro contact test, adult brown dog ticks; assay type: in vivo; details: 5 gg/cm^2, after 48 hours
Procedure: (§4) 9 mg compound is solved in 1 ml acetone and diluted with acetone to the desired concentration. 250 μl of the test solution is filled in 25 ml glass test tubes and homogeneously distributed on the inner walls by rotation and tilting on a shaking device (2 h at 30 rpm). With a compound concentration of 900 ppm, an inner surface of 44.7 cm^2 and a homogeneous distribution, a dose of 5 μg/cm^2 is achieved.
(§5) After the solvent has evaporated, each test tube is filled with 5-10 adult brown dog ticks (Rhipicephalus sanguineus), closed with a perforated lid and incubated in a lying position at room temperature and relative humidity. After 48 hours efficacy is determined. The ticks are patted on the ground of the tubes and are incubated on a heating plate at 45-50° C. for at most 5 minutes. Immotile or uncoordinated moving ticks, which are not able to escape the heat by climbing upwards, are marked as dead or moribund.
An efficacy of 100% means all ticks are dead or moribund; 0% means no ticks are dead or moribund.

[4] = test system: Anopheles funestus strain FUMOZ-R; test: whole plant or invertebrate; assay type: in vivo; details: read-out: efficacy (mortality)
Procedure: Anopheles funestus Test (ANPHFU Surface Treatment & Contact Assay) Solvent: Aceton+2000 ppm rapeseed oil methyl ester (RME)
as §2, with “Anopheles funestus” for “Culex quinquefasciatus”, “FUMOZ-R (Hunt et al., Med. Vet. Entomol. 2005 September; 19(3): 271-275)” for “P00”
as §3

Ctenocephalides felis [5] = test: Ctenocephalides felis in-vitro contact test, adult cat flea; assay type: in vivo; details: 5 μg/cm^2, after 48 hours
Procedure: as §4
as §5, with “cat fleas (Ctenocephalides felis),” for “brown dog ticks (Rhipicephalus sanguineus),”, “fleas” for “ticks”, “fleas,” for “ticks,”
An efficacy of 100% means all fleas are dead or moribund; 0% means no fleas are dead or moribund.

Nilaparvata lugens = Nilaparvata lugens spray test; assay type: in vivo; details: 96 h, after 4 days
Procedure: Nilaparvata lugens—Spray Test Solvent: 78.0 parts by weight of acetone • • 1.5 parts by weight of dimethylformamide Emulsifier: alkylarylpolyglycol ether
as §1, with “solvents” for “solvent,”, “and” for “and the concentrate”
Rice plants (Oryza sativa) are sprayed with a preparation of the active ingredient of the desired concentration and the plants are infested with the brown planthopper (Nilaparvata lugens).
After 4 days mortality in % is determined. 100% means all planthoppers have been killed and 0% means none of the planthoppers have been killed.

[6] = log P by HPLC on reversed phase, neutral range; assay type: physicochemical; details: reversed phase HPLC column, LC-UV, 0.001 molar ammonium acetate solution in water and acetonitrile
Procedure: Measurement of log P values was performed according to EEC directive 79/831 Annex V.A8 by HPLC (High Performance Liquid Chromatography) on reversed phase columns with the following methods. Instrument(s): Agilent 1100 LC system, Agilent MSD system, HTS PAL; Waters IClass Acquity UPLC, SQD2 (MS), PDA (UV). […] Calibration was done with straight-chain alkan-2-ones (with 3 to 16 carbon atoms) with known log P values (measurement of log P values using retention times with linear interpolation between successive alkanones). Lambda-max-values were determined using UV-spectra from 200 nm to 400 nm and the peak values of the chromatographic signals.

SMILES	pest or weed control at 160 µg/well (Diabrotica balteata)	mortality at 20 ppm (Myzus persicae)	mortality at 500 g/ha (Phaedon cochleariae)	mortality at 100 ppm (Ctenocephalides felis [1])	pest or weed control at 0.02 mg (Boophilus microplus)	further results
O=C(c1cc(Cl)nc(Cl)c1)N(Cc1ncnn1-c1ncccn1)CC1CC1 [Example I-002]	100%	100%	100%	80%		
O=C(c1cccc(C(F)(F)F)c1)N(Cc1ncnn1-c1ncccn1)CC1CC1 [Example I-003]	100%	100%	100%		100%	
O=C(NCc1ncnn1-c1ncccn1)c1cc(Cl)cc(C(F)(F)F)c1 [Example I-005]	100%	100%	100%	100%	100%	mortality at 500 g/ha (Spodoptera frugiperda): 100%; mortality at 4 mg/m2 [2]: 85 to 100%; mortality at 20 mg/m2 [2]: 85 to 100%; mortality at 20 mg/m2 [3]: 85 to 100%; efficacy (ticks dead or moribund) (Rhipicephalus sanguineus): 100%; mortality at 4 mg/m2 [4]: 85 to 100%; mortality at 20 mg/m2 [4]: 85 to 100%; efficacy (fleas dead or moribund) (Ctenocephalides felis [5]): 100%
O=C(NCCc1ncnn1-c1ncccn1)c1cc(Cl)cc(C(F)(F)F)c1 [Example I-006]	100%	100%	100%	100%	100%	mortality at 20 mg/m2 [3]: 85 to 100%
O=C(NC(CC1CC1)c1ncnn1-c1ncccn1)c1cc(Cl)cc(C(F)(F)F)c1 (stereo not shown) [Example I-007]		100%				
O=C(NC(c1ncnn1-c1ncccn1)C1CC1)c1cc(Cl)cc(C(F)(F)F)c1 (stereo not shown) [Example I-008]			100%	100%	95%	
O=C(c1cc(Cl)cc(Cl)c1)N(Cc1ncnn1-c1ncccn1)CC1CC1 [Example I-010]	100%	100%	100%			
COCC(NC(=O)c1cc(Cl)cc(C(F)(F)F)c1)c1ncnn1-c1ncccn1 (stereo not shown) [Example I-012, 3-Chloro-N-{2-methoxy-1-[1-(pyrimidin-2-yl)-1H-1,2,4-triazol-5-yl]ethyl}-5-(trifluoromethyl)-benzamide]	100%	100%	100%	100%	100%	mortality at 500 g/ha (Nilaparvata lugens): 100%; efficacy (ticks dead or moribund) (Rhipicephalus sanguineus): 80%; efficacy (fleas dead or moribund) (Ctenocephalides felis [5]): 100%
COCC(NC(=O)c1cc(Cl)cc(C(F)(F)F)c1)c1ncnn1-c1ccc(C#N)cn1 (stereo not shown) [Example I-013]				100%	100%	mortality at 500 g/ha (Spodoptera frugiperda): 100%
O=C(NC1(c2ncnn2-c2ncccn2)CC1)c1cc(C(F)(F)F)cc(C(F)(F)F)c1 [Example I-014]					100%	
COC[C@H](NC(=O)c1cc(Cl)cc(Cl)c1)c1ncnn1-c1ccc(C#N)cn1 [Example I-017]						mortality at 500 g/ha (Spodoptera frugiperda): 100%; efficacy (fleas dead or moribund) (Ctenocephalides felis [5]): 90%
COC[C@H](NC(=O)c1cc(Cl)cc(OC(F)(F)F)c1)c1ncnn1-c1ccc(C#N)cn1 [Example I-018]						mortality at 500 g/ha (Spodoptera frugiperda): 100%
NCCc1ncnn1-c1ncccn1 [a-002]						chromatographic logP [6]: 0.01
N#Cc1ccc(-n2ncnc2CCN)nc1 [a-003]						chromatographic logP [6]: 0.87
COCC(NC(=O)c1cc(Cl)cc(C(F)(F)F)c1)C(N)=O (stereo not shown) [n-001, N-(1-amino-3-methoxy-1-oxopropan-2-yl)-3-chloro-5-(trifluoromethyl)benzamide]						chromatographic logP [6]: 1.94
